Laboratory results from publication PMC9697135 (International Journal of Molecular Sciences, 2022).
Read-outs that look alike come from different tables or passages of the source.

What was measured:
human nSMase2 = conditions: cited from earlier work; for IC50: nSMase2 inhibition
in vitro [1] = conditions: human
ZIKV = assay: Antiviral activity, virus yield by plaque assay (ZIKV); type: cell-based; conditions: Zika virus, 24 h, read-out: EC50 ZIKV
in vitro [2] = conditions: African green monkey
WNV = assay: Antiviral activity, virus yield by plaque assay (WNV); type: cell-based; conditions: West Nile virus, MOI 1 PFU/cell, virus yield at 24 h post-infection

Structure (SMILES): COc1cc(O)c(C(=O)O)c(-c2cc(O)c(O)cc2C)c1 [Altenusin]
- Ki (human nSMase2; non-competitive inhibitor of human nSMase2): 20000 nM

Structure (SMILES): COc1cc(-c2nc(-c3cccs3)c(-c3ccccc3)[nH]2)cc(OC)c1O [DPTIP]
- CC50 (in vitro [1]): 15100 nM
- EC50 (ZIKV; HeLa): 1840 nM
- EC50 (ZIKV; Vero): 1560 nM
- CC50 (in vitro [2]): 54800 nM
- EC50 (WNV; HeLa cells): 2810 nM
- EC50 (WNV; Vero cells): 260 nM

Structure (SMILES): COc1cc(-c2nc(-c3cccs3)c(-c3ccccc3)[nH]2)cc(OC)c1OC [compound 8]
- nSMase2 inhibitory activity (in words) (human nSMase2; SAR of DPTIP derivatives): completely inactive
- IC50 (human nSMase2; SAR of DPTIP derivatives): > 100000 nM

Structure (SMILES): COc1cc(-c2nc(-c3cccs3)c(-c3ccccc3)n2C)cc(OC)c1O [compound 9]
- IC50 (human nSMase2; SAR of DPTIP derivatives): 40000 nM

Structure (SMILES): Oc1c(OC2CCCC2)cc(-c2nc(-c3cccs3)c(-c3ccccc3)[nH]2)cc1OC1CCCC1 [compound 10]
- IC50 (human nSMase2; SAR of DPTIP derivatives): 120 nM

Structure (SMILES): CC(C)(C)Oc1cc(-c2nc(-c3cccs3)c(-c3ccccc3)[nH]2)cc(OC(C)(C)C)c1O [compound 11]
- IC50 (human nSMase2; SAR of DPTIP derivatives): 520 nM
